30 compounds from patent US8273769B2, “Phenoxy acetic acid derivatives” (Merck Serono SA, priority 2009, dated 2012) can be followed below.

Each structure is given as a SMILES string.

The experiment concerns the target T1, CRTH2 (Homo sapiens, UniProt Q9Y5Y4).
T1 sequence (Q9Y5Y4 1-395): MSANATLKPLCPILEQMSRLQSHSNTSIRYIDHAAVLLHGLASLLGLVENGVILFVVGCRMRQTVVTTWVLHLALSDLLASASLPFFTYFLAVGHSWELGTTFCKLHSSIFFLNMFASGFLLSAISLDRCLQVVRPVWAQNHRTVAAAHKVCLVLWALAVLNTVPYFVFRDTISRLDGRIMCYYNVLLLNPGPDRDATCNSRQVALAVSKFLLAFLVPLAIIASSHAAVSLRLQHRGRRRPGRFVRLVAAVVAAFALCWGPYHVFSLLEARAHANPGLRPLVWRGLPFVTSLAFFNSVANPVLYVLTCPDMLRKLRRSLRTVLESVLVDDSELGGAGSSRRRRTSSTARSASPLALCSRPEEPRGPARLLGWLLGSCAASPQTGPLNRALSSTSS
Briefly: Radioligand binding Scintillation Proximity Assay ([3H]PGD2, hCRTH2-CHO cell membranes). The arrangement: host or cells: CHO cells. As to conditions: 1.5 nM [3H]PGD2, hCRTH2-CHO cell membranes, SPA. On the procedure:
Adherent CHO cells expressing hCRTH2 (Euroscreen, Belgium) were cultured in 225 cm^2 cell culture flasks (Corning, USA) in 30 ml of medium. After two rinses of phosphate buffered saline (PBS), cells were harvested in 10 ml of PBS containing 1 mM EDTA, centrifuged at 500×g for 5 min at 4° C. and frozen at −80° C. The pellet was re-suspended in 50 mM Tris-HCl, pH 7.4, 2 mM EDTA, 250 mM Sucrose, containing protease inhibitor cocktail tablets, (Complete EDTA-free, Roche, Germany) and incubated 30 min at 4° C. Cells were disrupted by nitrogen cavitation (Parr Instruments, USA) at 4° C. (800 p.s.i. for 30 min), and centrifuged at 500×g for 10 min at 4° C. Pellet containing nuclei and cellular debris was discarded and supernatant was centrifuged 60 min at 4° C. at 45000×g. Membrane pellet was re-suspended in storage buffer (10 mM HEPES/KOH pH 7.4, 1 mM EDTA, 250 mM sucrose, protease inhibitor cocktail tablets) using Dounce homogenization and frozen in liquid nitrogen, and stored at −80° C.
The inhibitory activity can be investigated by a radioligand binding Scintillation Proximity Assay (SPA) (Sawyer et al., Br. J. Pharmocol 2002, 137, 1163-72). The SPA radioligand binding assay was performed at room temperature in binding buffer (10 mM HEPES/KOH pH 7.4, 10 mM MnCl2, with protease inhibitor cocktail tablets), containing 1.5 nM [^3H]PGD2 (Perkin Elmer), 10-50 μg/ml of hCRTH2-CHO cell membrane protein and 2 mg/ml of Wheat-germ agglutinin Sintillation Proximity Assay beads (RPNQ0001, GE-Healthcare) in a final volume of 100 μl in 96 well plates (Corning, USA). Non-specific binding was determined in the presence of 10 μM PGD2 (Cayman, USA). Competing Compounds of Formula (I) were diluted in dimethylsulphoxide so that the total volume of dimethylsulfoxide was kept constant at 1% dimethylsulphoxide (Me2SO). Serial dilutions of 100 μM to 100 pM were prepared and 10 μl each of the compounds of Formula (I) stock solutions were added to the binding assay reagents and incubated for 90 min with agitation at room temperature. Binding activity was determined by using a 1450 Micro-beta scintillation counter (Wallac, UK).
(In general: SPA uses beads or plates that emit light when radiolabelled molecules are held near them.)
In general, IC50 refers to the point on the concentration scale where inhibition reaches its midpoint. A high value points to weaker potency in that assay. In the case of `CCCS(=O)(=O)c1cccc(C#Cc2cc(F)ccc2OCC(=O)O)c1` [Example 99, (4-fluoro-2-{[3-(propylsulfonyl)phenyl]ethynyl}phenoxy)acetic acid], the 50% inhibitory concentration (IC50) worked out at 79 nM.
The result for `Cc1ccc(S(=O)(=O)N2CCCCC2C)cc1C#Cc1cc(Cl)ccc1OCC(=O)O` (stereo not drawn) [Example 108, [4-chloro-2-({2-methyl-5-[(2-methylpiperidin-1-yl)sulfonyl]phenyl}ethynyl)-phenoxy]acetic acid] reads 2 nM.
For `Cc1ccc(S(=O)(=O)N(C)CC(C)C)cc1C#Cc1cc(Cl)ccc1OCC(=O)O` [Example 110, {4-chloro-2-[(5-{[isobutyl(methyl)amino]sulfonyl}-2-methylphenyl)ethynyl]phenoxy}acetic acid] the value was 5 nM; for `CCCCN(C)S(=O)(=O)c1ccc(C)c(C#Cc2cc(Cl)ccc2OCC(=O)O)c1` [Example 111, {2-[(5-{[butyl(methyl)amino]sulfonyl}-2-methylphenyl)ethynyl]-4-chlorophenoxy}acetic acid], 6 nM.
For `Cc1ccc(S(=O)(=O)N2CCN(C)CC2)cc1C#Cc1cc(Cl)ccc1OCC(=O)O` [Example 112, [4-chloro-2-({2-methyl-5-[(4-methylpiperazin-1-yl)sulfonyl]phenyl}ethynyl)phenoxy]acetic acid] the value was 27 nM; for `Cc1ccc(S(=O)(=O)NCC(C)(C)C)cc1C#Cc1cc(Cl)ccc1OCC(=O)O` [Example 113, {4-chloro-2-[(5-{[(2,2-dimethylpropyl)amino]sulfonyl}-2-methylphenyl)ethynyl]phenoxy}acetic acid], 2 nM; for `CCC(C)NS(=O)(=O)c1ccc(C)c(C#Cc2cc(Cl)ccc2OCC(=O)O)c1` (stereo not drawn) [Example 114, [2-({5-[(sec-butylamino)sulfonyl]-2-methylphenyl}ethynyl)-4-chlorophenoxy]acetic acid], 3 nM.
For the compound `CCCN(C)S(=O)(=O)c1ccc(C)c(C#Cc2cc(Cl)ccc2OCC(=O)O)c1` [Example 115, {4-chloro-2-[(2-methyl-5-{[methyl(propyl)amino]sulfonyl}phenyl)ethynyl]phenoxy}acetic acid], the IC50 is 5 nM.
For `CCCN(CCC)S(=O)(=O)c1ccc(C)c(C#Cc2cc(Cl)ccc2OCC(=O)O)c1` [Example 116, [4-chloro-2-({5-[(dipropylamino)sulfonyl]-2-methylphenyl}ethynyl)phenoxy]acetic acid] the value was 8 nM; for `CCCNS(=O)(=O)c1ccc(C)c(C#Cc2cc(Cl)ccc2OCC(=O)O)c1` [Example 118, [4-chloro-2-({2-methyl-5-[(propylamino)sulfonyl]phenyl}ethynyl)phenoxy]acetic acid], 4 nM; for `Cc1ccc(S(=O)(=O)N(C)CCCN(C)C)cc1C#Cc1cc(Cl)ccc1OCC(=O)O` [Example 119, {4-chloro-2-[(5-{[[3-(dimethylamino)propyl](methyl)amino]sulfonyl}-2-methylphenyl)ethynyl]phenoxy}acetic acid], 369 nM.
The compound `Cc1ccc(S(N)(=O)=O)cc1C#Cc1cc(Cl)ccc1OCC(=O)O` [Example 120, (2-{[5-(aminosulfonyl)-2-methylphenyl]ethynyl}-4-chlorophenoxy)acetic acid] came in with an IC50 of 25 nM.
The result for `Cc1ccc(S(=O)(=O)N(C)C2CCCC2)cc1C#Cc1cc(Cl)ccc1OCC(=O)O` [Example 121, {4-chloro-2-[(5-{[cyclopentyl(methyl)amino]sulfonyl}-2-methylphenyl)ethynyl]phenoxy}acetic acid] reads 8 nM; that for `Cc1ccc(S(=O)(=O)N(C)CCN(C)C)cc1C#Cc1cc(Cl)ccc1OCC(=O)O` [Example 122, {4-chloro-2-[(5-{[[2-(dimethylamino)ethyl](methyl)amino]sulfonyl}-2-methylphenyl)ethynyl]phenoxy}acetic acid], 452 nM; that for `Cc1ccc(S(=O)(=O)N2CCC2)cc1C#Cc1cc(Cl)ccc1OCC(=O)O` [Example 123, (2-{[5-(azetidin-1-ylsulfonyl)-2-methylphenyl]ethynyl}-4-chlorophenoxy)acetic acid], 5 nM.
`O=C(O)COc1ccc(Cl)cc1C#Cc1ccc(C(=O)N2CCOCC2)cc1` [Example 124, (4-chloro-2-{[4-(morpholin-4-ylcarbonyl)phenyl]ethynyl}phenoxy)acetic acid] returned a concentration for half-maximal inhibition (IC50) of 106 nM.
The compound `CN(C)C(=O)c1ccc(C#Cc2cc(Cl)ccc2OCC(=O)O)cc1` [Example 125, [4-chloro-2-({4-[(dimethylamino)carbonyl]phenyl}ethynyl)phenoxy]acetic acid] displayed an IC50 of 57 nM.
For the compound `O=C(O)COc1ccc(Cl)cc1C#Cc1cccc(C(=O)N2CCOCC2)c1` [Example 126, (4-chloro-2-{[3-(morpholin-4-ylcarbonyl)phenyl]ethynyl}phenoxy)acetic acid], the IC50 came out at 60 nM.
As for `CN(C)C(=O)c1cccc(C#Cc2cc(Cl)ccc2OCC(=O)O)c1` [Example 127, [4-chloro-2-({3-[(dimethylamino)carbonyl]phenyl}ethynyl)phenoxy]acetic acid], the IC50 was 68 nM.
For `CCCS(=O)(=O)c1cccc(C#Cc2cc(Cl)cnc2OCC(=O)O)c1` [Example 128, [(5-chloro-3-{[3-(propylsulfonyl)phenyl]ethynyl}pyridin-2-yl)oxy]acetic acid] the value was 63 nM; for `CCCS(=O)(=O)c1ccc(F)c(C#Cc2cc(Cl)cnc2OCC(=O)O)c1` [Example 129, [(5-chloro-3-{[2-fluoro-5-(propylsulfonyl)phenyl]ethynyl}pyridin-2-yl)oxy]acetic acid], 10 nM; for `O=C(O)COc1ccc(Cl)cc1C#Cc1cc(S(=O)(=O)C(F)(F)F)ccc1Cl` [Example 130, [4-chloro-2-({2-chloro-5-[(trifluoromethyl)sulfonyl]phenyl}ethynyl)phenoxy]acetic acid], 9 nM.
The result for `CCCS(=O)(=O)c1cccc(C#Cc2cc(-c3sc(C)nc3C)ccc2OCC(=O)O)c1` [Example 132, (4-(2,4-dimethyl-1,3-thiazol-5-yl)-2-{[3-(propylsulfonyl)phenyl]ethynyl}phenoxy)acetic acid] reads 68 nM; that for `CCCS(=O)(=O)c1cccc(C#Cc2cc(-c3ccsc3)ccc2OCC(=O)O)c1` [Example 133, [2-{[3-(propylsulfonyl)phenyl]ethynyl}-4-(3-thienyl)phenoxy]acetic acid], 23 nM; that for `CCCS(=O)(=O)c1cccc(C#Cc2cc(-c3cccs3)ccc2OCC(=O)O)c1` [Example 134, [2-{[3-(propylsulfonyl)phenyl]ethynyl}-4-(2-thienyl)phenoxy]acetic acid], 15 nM.
`CCCS(=O)(=O)c1cccc(C#Cc2cc(-c3cnn(C)c3)ccc2OCC(=O)O)c1` [Example 135, (4-(1-methyl-1H-pyrazol-4-yl)-2-{[3-(propylsulfonyl)phenyl]ethynyl}phenoxy)acetic acid] came in with an IC50 of 530 nM.
Turning to `CCCS(=O)(=O)c1cccc(C#Cc2cc(-c3c(C)nn(C)c3C)ccc2OCC(=O)O)c1` [Example 136, [2-{[3-(Propylsulfonyl)phenyl]ethynyl}-4-(1,3,5-trimethyl-1H-pyrazol-4-yl)phenoxy]acetic acid], the IC50 was determined as 360 nM.
Turning to `Cc1ccc(NS(C)(=O)=O)cc1C#Cc1cc(Cl)ccc1OCC(=O)O` [Example 137, [4-chloro-2-({2-methyl-5-[(methylsulfonyl)amino]phenyl}ethynyl)phenoxy]acetic acid], the IC50 amounted to 70 nM.
The result for `Cc1ccc(N(C)S(C)(=O)=O)cc1C#Cc1cc(Cl)ccc1OCC(=O)O` [Example 138, [4-chloro-2-({2-methyl-5-[methyl(methylsulfonyl)amino]phenyl}ethynyl)phenoxy]acetic acid] reads 150 nM; that for `Cc1ncc(S(=O)(=O)N(C)C)cc1C#Cc1cc(Cl)ccc1OCC(=O)O` [Example 139, [4-chloro-2-({5-[(dimethylamino)sulfonyl]-2-methylpyridin-3-yl}ethynyl)phenoxy]acetic acid], 51 nM.
